Data as given in patent US9833497B2, “Human originated EGF domain proteins and use of the same” (CHENGDU SOURCEBIO LIMITED-LIABILITY COMPANY, priority 2013, dated 2017).

What was measured:
Type in all cases: cell-based
E. coli BL21 = test: MIC against Gram-negative bacteria: E. coli BL21
Procedure, shortened: (§1)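 MIC = lowest concentration of recombinant protein showing no growth. Test proteins: purified human-derived EGF domain proteins, two-fold dilution series, three wells per concentration; inoculum 5×10^5 CFU/mL in LB; incubation 37° C with shaking at 175 rpm.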

Klebsiella pneumonia = test: MIC against Gram-negative bacteria: Klebsiella pneumonia
Procedure, shortened: as §1

Citrobacter diversus = test: MIC against Gram-negative bacteria: Citrobacter diversus
Procedure, shortened: as §1

Proteus vulgaris = test: MIC against Gram-negative bacteria: Proteus vulgaris
Procedure, shortened: as §1

Aeromonas hydrophila = test: MIC against Gram-negative bacteria: Aeromonas hydrophila
Procedure, shortened: as §1

Moraxella catarrhalis = test: MIC against Gram-negative bacteria: Moraxella catarrhalis
Procedure, shortened: as §1

E. coli DH5α = test: Antibacterial activity: MIC and growth curve against E. coli DH5α in 96-well plate; settings: minimal inhibitory concentration against E. coli DH5α; 96-well plate, 5×10^5 CFU/mL, 37° C., judged after 8 h
Procedure, shortened: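 Log-phase DH5α (OD600 about 0.5, 37° C, 185 rpm in LB) was pelleted, resuspended in fresh LB and seeded at 5×10^5 CFU/mL with recombinant protein at 50, 25 and 12.5 μg/mL (two-fold series), in triplicate. Plates were shaken at 175 rpm, 37° C, and OD600 was read every 30 min. MIC was the lowest concentration with no growth.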

Pseudomonas aeruginosa = test: MIC against Gram-negative bacteria: Pseudomonas aeruginosa
Procedure, shortened: as §1

Serratia marcescens = test: MIC against Gram-negative bacteria: Serratia marcescens
Procedure, shortened: as §1

Enterobacter cloacae = test: MIC against Gram-negative bacteria: Enterobacter cloacae
Procedure, shortened: as §1

Proteus mirabilis = test: MIC against Gram-negative bacteria: Proteus mirabilis
Procedure, shortened: as §1

[1] = E. coli BL21, 10 h cultivation at 37° C., 5×10^5 CFU/mL
[2] = K. pneumonia, 10 h cultivation at 37° C., 5×10^5 CFU/mL
[3] = C. diversus, 10 h cultivation at 37° C., 5×10^5 CFU/mL
[4] = P. vulgaris, 10 h cultivation at 37° C., 5×10^5 CFU/mL
[5] = A. hydrophila, 10 h cultivation at 37° C., 5×10^5 CFU/mL
[6] = M. catarrhalis, 10 h cultivation at 37° C., 5×10^5 CFU/mL
[7] = P. aeruginosa, 10 h cultivation at 37° C., 5×10^5 CFU/mL
[8] = S. marcescens, 10 h cultivation at 37° C., 5×10^5 CFU/mL
[9] = E. cloacae, 10 h cultivation at 37° C., 5×10^5 CFU/mL
[10] = P. mirabilis, 10 h cultivation at 37° C., 5×10^5 CFU/mL
[11] = E. coli BL21, 96-well plate, 5×10^5 CFU/mL, 37° C., 10 h
[12] = Klebsiella pneumonia, 96-well plate, 5×10^5 CFU/mL, 37° C., 10 h
[13] = Citrobacter diversus, 96-well plate, 5×10^5 CFU/mL, 37° C., 10 h
[14] = Proteus vulgaris, 96-well plate, 5×10^5 CFU/mL, 37° C., 10 h
[15] = Aeromonas hydrophila, 96-well plate, 5×10^5 CFU/mL, 37° C., 10 h
[16] = Moraxella catarrhalis, 96-well plate, 5×10^5 CFU/mL, 37° C., 10 h
[17] = Pseudomonas aeruginosa, 96-well plate, 5×10^5 CFU/mL, 37° C., 10 h
[18] = Serratia marcescens, 96-well plate, 5×10^5 CFU/mL, 37° C., 10 h
[19] = Enterobacter cloacae, 96-well plate, 5×10^5 CFU/mL, 37° C., 10 h
[20] = Proteus mirabilis, 96-well plate, 5×10^5 CFU/mL, 37° C., 10 h
[21] = 10 h cultivation at 37° C., 5×10^5 CFU/mL, two-fold serial dilution

PRT1352 (SEPECPGNCHLRGRCIDGQCICDDGFTGEDCS; listed as Homo sapiens)
MIC against E. coli BL21 (E. coli BL21; E. coli BL21, 5×10^5 CFU/mL, 10 h cultivation at 37° C.): 12.5 mg/L
MIC against K. pneumonia (Klebsiella pneumonia; Klebsiella pneumonia, 5×10^5 CFU/mL, 10 h cultivation at 37° C.): 12.5 mg/L
MIC against C. diversus (Citrobacter diversus; Citrobacter diversus, 5×10^5 CFU/mL, 10 h cultivation at 37° C.): 50 mg/L
MIC against P. vulgaris (Proteus vulgaris; Proteus vulgaris, 5×10^5 CFU/mL, 10 h cultivation at 37° C.): 50 mg/L
MIC against A. hydrophila (Aeromonas hydrophila; Aeromonas hydrophila, 5×10^5 CFU/mL, 10 h cultivation at 37° C.): 12.5 mg/L
MIC against M. catarrhalis (Moraxella catarrhalis; Moraxella catarrhalis, 5×10^5 CFU/mL, 10 h cultivation at 37° C.): 12.5 mg/L
MIC (E. coli DH5α): 12.5 mg/L
MIC against P. aeruginosa (Pseudomonas aeruginosa; Pseudomonas aeruginosa, 5×10^5 CFU/mL, 10 h cultivation at 37° C.): 12.5 mg/L
MIC against S. marcescens (Serratia marcescens; Serratia marcescens, 5×10^5 CFU/mL, 10 h cultivation at 37° C.): 25 mg/L
MIC against E. cloacae (Enterobacter cloacae; Enterobacter cloacae, 5×10^5 CFU/mL, 10 h cultivation at 37° C.): 12.5 mg/L
MIC against P. mirabilis (Proteus mirabilis; Proteus mirabilis, 5×10^5 CFU/mL, 10 h cultivation at 37° C.): 25 mg/L

PRT884 (HSDPCENNPCLHGGTCNANGTMYGCSCDQGFAGENCE; listed as Homo sapiens)
MIC (μg/mL) E. coli BL21 (E. coli BL21; [1]): 12.5 µg/mL
MIC (μg/mL) K. pneumonia (Klebsiella pneumonia; [2]): 12.5 µg/mL
MIC (μg/mL) C. diversus (Citrobacter diversus; [3]): 12.5 µg/mL
MIC (μg/mL) P. vulgaris (Proteus vulgaris; [4]): 50 µg/mL
MIC (μg/mL) A. hydrophila (Aeromonas hydrophila; [5]): 12.5 µg/mL
MIC (μg/mL) M. catarrhalis (Moraxella catarrhalis; [6]): 12.5 µg/mL
MIC (E. coli DH5α): 12.5 mg/L
MIC (μg/mL) P. aeruginosa (Pseudomonas aeruginosa; [7]): 12.5 µg/mL
MIC (μg/mL) S. marcescens (Serratia marcescens; [8]): 25 µg/mL
MIC (μg/mL) E. cloacae (Enterobacter cloacae; [9]): 12.5 µg/mL
MIC (μg/mL) P. mirabilis (Proteus mirabilis; [10]): 25 µg/mL

PRT59 (PCTVGDASACLTCAPDNRTRCGTCNTGYMLSQGLCK; listed as Homo sapiens)
MIC (μg/mL) E. coli BL21 (E. coli BL21; [11]): 12.5 µg/mL
MIC (μg/mL) K. pneumonia (Klebsiella pneumonia; [12]): 50 µg/mL
MIC (μg/mL) C. diversus (Citrobacter diversus; [13]): 25 µg/mL
MIC (μg/mL) P. vulgaris (Proteus vulgaris; [14]): 12.5 µg/mL
MIC (μg/mL) A. hydrophila (Aeromonas hydrophila; [15]): 12.5 µg/mL
MIC (μg/mL) M. catarrhalis (Moraxella catarrhalis; [16]): 12.5 µg/mL
MIC (E. coli DH5α): 25 mg/L
MIC (μg/mL) P. aeruginosa (Pseudomonas aeruginosa; [17]): 25 µg/mL
MIC (μg/mL) S. marcescens (Serratia marcescens; [18]): 12.5 µg/mL
MIC (μg/mL) E. cloacae (Enterobacter cloacae; [19]): 25 µg/mL
MIC (μg/mL) P. mirabilis (Proteus mirabilis; [20]): 25 µg/mL

PRT1038 (FDMPCDETLCSADSFCVNDYTWGGSRCQCTLGKGGESCS; listed as Homo sapiens)
MIC (E. coli BL21; E. coli BL21, 10 h cultivation at 37° C.): 12.5 mg/L
MIC (Klebsiella pneumonia; K. pneumonia, 10 h cultivation at 37° C.): 50 mg/L
MIC (Citrobacter diversus; C. diversus, 10 h cultivation at 37° C.): 25 mg/L
MIC (Proteus vulgaris; P. vulgaris, 10 h cultivation at 37° C.): 12.5 mg/L
MIC (Aeromonas hydrophila; A. hydrophila, 10 h cultivation at 37° C.): 12.5 mg/L
MIC (Moraxella catarrhalis; M. catarrhalis, 10 h cultivation at 37° C.): 50 mg/L
MIC (E. coli DH5α): 50 mg/L
MIC (Pseudomonas aeruginosa; P. aeruginosa, 10 h cultivation at 37° C.): 50 mg/L
MIC (Serratia marcescens; S. marcescens, 10 h cultivation at 37° C.): 25 mg/L
MIC (Enterobacter cloacae; E. cloacae, 10 h cultivation at 37° C.): 50 mg/L
MIC (Proteus mirabilis; P. mirabilis, 10 h cultivation at 37° C.): 50 mg/L

PRT1089 (ANPCCSHPCQNRGVCMSVGFDQYKCDCTRTGFYGENCS; listed as Homo sapiens)
MIC E. coli BL21 (E. coli BL21; [21]): 25 mg/L
MIC K. pneumonia (Klebsiella pneumonia; [21]): 25 mg/L
MIC C. diversus (Citrobacter diversus; [21]): 25 mg/L
MIC P. vulgaris (Proteus vulgaris; [21]): 50 mg/L
MIC A. hydrophila (Aeromonas hydrophila; [21]): 50 mg/L
MIC M. catarrhalis (Moraxella catarrhalis; [21]): 12.5 mg/L
MIC (E. coli DH5α): 50 mg/L
MIC P. aeruginosa (Pseudomonas aeruginosa; [21]): 50 mg/L
MIC S. marcescens (Serratia marcescens; [21]): 25 mg/L
MIC E. cloacae (Enterobacter cloacae; [21]): 12.5 mg/L
MIC P. mirabilis (Proteus mirabilis; [21]): 25 mg/L

PRT806 (FGFQCSQHCDCHNGGQCSPTTGACECEPGYKGPRCQ; listed as Homo sapiens)
MIC (μg/mL) E. coli BL21 (E. coli BL21; [1]): 25 µg/mL
MIC (μg/mL) K. pneumonia (Klebsiella pneumonia; [2]): 12.5 µg/mL
MIC (μg/mL) C. diversus (Citrobacter diversus; [3]): 12.5 µg/mL
MIC (μg/mL) P. vulgaris (Proteus vulgaris; [4]): 25 µg/mL
MIC (μg/mL) A. hydrophila (Aeromonas hydrophila; [5]): 12.5 µg/mL
MIC (μg/mL) M. catarrhalis (Moraxella catarrhalis; [6]): 25 µg/mL
MIC (E. coli DH5α): 12.5 mg/L
MIC (μg/mL) P. aeruginosa (Pseudomonas aeruginosa; [7]): 12.5 µg/mL
MIC (μg/mL) S. marcescens (Serratia marcescens; [8]): 25 µg/mL
MIC (μg/mL) E. cloacae (Enterobacter cloacae; [9]): 12.5 µg/mL
MIC (μg/mL) P. mirabilis (Proteus mirabilis; [10]): 12.5 µg/mL

PRT124 (ITDRCSPNMCEHDGRCYQSWDDFICYCELTGYKGETCH; listed as Homo sapiens)
MIC (μg/mL) E. coli BL21 (E. coli BL21; [11]): 50 µg/mL
MIC (μg/mL) K. pneumonia (Klebsiella pneumonia; [12]): 50 µg/mL
MIC (μg/mL) C. diversus (Citrobacter diversus; [13]): 12.5 µg/mL
MIC (μg/mL) P. vulgaris (Proteus vulgaris; [14]): 12.5 µg/mL
MIC (μg/mL) A. hydrophila (Aeromonas hydrophila; [15]): 12.5 µg/mL
MIC (μg/mL) M. catarrhalis (Moraxella catarrhalis; [16]): 12.5 µg/mL
MIC (E. coli DH5α): 12.5 mg/L
MIC (μg/mL) P. aeruginosa (Pseudomonas aeruginosa; [17]): 12.5 µg/mL
MIC (μg/mL) S. marcescens (Serratia marcescens; [18]): 12.5 µg/mL
MIC (μg/mL) E. cloacae (Enterobacter cloacae; [19]): 12.5 µg/mL
MIC (μg/mL) P. mirabilis (Proteus mirabilis; [20]): 12.5 µg/mL

PRT1276 (LTCNYGNGGCQHTCDDTEQGPRCGCHIKFVLHTDGKTCI; listed as Homo sapiens)
MIC against E. coli BL21 (E. coli BL21; [11]): 12.5 mg/L
MIC against K. pneumonia (Klebsiella pneumonia; [12]): 12.5 mg/L
MIC against C. diversus (Citrobacter diversus; [13]): 50 mg/L
MIC against P. vulgaris (Proteus vulgaris; [14]): 12.5 mg/L
MIC against A. hydrophila (Aeromonas hydrophila; [15]): 12.5 mg/L
MIC against M. catarrhalis (Moraxella catarrhalis; [16]): 12.5 mg/L
MIC (E. coli DH5α): 50 mg/L
MIC against P. aeruginosa (Pseudomonas aeruginosa; [17]): 50 mg/L
MIC against S. marcescens (Serratia marcescens; [18]): 50 mg/L
MIC against E. cloacae (Enterobacter cloacae; [19]): 50 mg/L
MIC against P. mirabilis (Proteus mirabilis; [20]): 50 mg/L

PRT213 (QNCTKTPCLPNAKCEIRNGIEACYCNMGFSGNGVTICE; listed as Homo sapiens)
MIC (μg/mL) E. coli BL21 (E. coli BL21; [1]): 12.5 µg/mL
MIC (μg/mL) K. pneumonia (Klebsiella pneumonia; [2]): 12.5 µg/mL
MIC (μg/mL) C. diversus (Citrobacter diversus; [3]): 50 µg/mL
MIC (μg/mL) P. vulgaris (Proteus vulgaris; [4]): 50 µg/mL
MIC (μg/mL) A. hydrophila (Aeromonas hydrophila; [5]): 12.5 µg/mL
MIC (μg/mL) M. catarrhalis (Moraxella catarrhalis; [6]): 12.5 µg/mL
MIC (E. coli DH5α): 12.5 mg/L
MIC (μg/mL) P. aeruginosa (Pseudomonas aeruginosa; [7]): 12.5 µg/mL
MIC (μg/mL) S. marcescens (Serratia marcescens; [8]): 25 µg/mL
MIC (μg/mL) E. cloacae (Enterobacter cloacae; [9]): 50 µg/mL
MIC (μg/mL) P. mirabilis (Proteus mirabilis; [10]): 25 µg/mL

PRT1200 (DIDECSEGIIECHNHSRCVNLPGWYHCECRSGFHDDGTY; listed as Homo sapiens)
MIC against E. coli BL21 (E. coli BL21; [11]): 12.5 mg/L
MIC against K. pneumonia (Klebsiella pneumonia; [12]): 12.5 mg/L
MIC against C. diversus (Citrobacter diversus; [13]): 12.5 mg/L
MIC against P. vulgaris (Proteus vulgaris; [14]): 12.5 mg/L
MIC against A. hydrophila (Aeromonas hydrophila; [15]): 25 mg/L
MIC against M. catarrhalis (Moraxella catarrhalis; [16]): 50 mg/L
MIC (E. coli DH5α): 12.5 mg/L
MIC against P. aeruginosa (Pseudomonas aeruginosa; [17]): 12.5 mg/L
MIC against S. marcescens (Serratia marcescens; [18]): 50 mg/L
MIC against E. cloacae (Enterobacter cloacae; [19]): 25 mg/L
MIC against P. mirabilis (Proteus mirabilis; [20]): 25 mg/L
